The term EC50 denotes the concentration at which the effect is half-maximal.

The values below come from patent publication US10610538B2, “Pradimicin derivatives for the treatment of diseases caused by kinetoplastids” (KATHOLIEKE UNIVERSITEIT LEUVEN, priority 2013, dated 2020).

Values after ≈ are worked out from the molar mass of the structure shown. Read-outs that look alike come from different tables or passages of the source.

One assay has as its system T. cruzi trypomastigotes. The experiment in a line: Lysis of T. cruzi trypomastigotes (resazurin). The class given is cell-based, Trypanosoma cruzi Tulahuen strain C4. The settings on record: 24 h, half-maximal lysis. The method, then: (§1) Activity of pradimicin A (PRM-A) and S (PRM-S) against T. cruzi was studied in epimastigote and trypomastigote forms of T. cruzi Tulahuen strain C4.
(§2) In the case of epimastigote forms, 2×10^5 parasites were seeded in a 96-wells plate (100 μL) and incubated 3 days with different drug concentrations between 0.0625 μg·mL^−1 and 100 μg·mL^−1 in liver infusion tryptose (LIT) medium supplemented with 10% fetal calf serum at 28° C. In the case of trypomastigotes, 1×10^5 parasites were seeded in a 96-well plate (100 μL) and incubated with different drug concentrations between 0.006 μg·mL^−1 and 12.5 μg·mL^−1 for 24 h in RPMI 1640 medium supplemented with 10% FBS, 2 mM L-glutamine, 100 U·mL^−1 penicillin and 100 μg·mL^−1 streptomycin at 37° C. and 5% CO2. Cell viability of epimastigotes and lysis percentage of trypomastigotes were determined by adding 10 μL of resazurin (0.11 mg·mL^−1 in PBS) and measuring fluorescence at 570/590 nm of excitation/emission wavelength after 2 h of incubation using a Spectramax Gemini EM microplate fluorometer (Molecular Devices Cooperation, Sunnyvale, Calif., USA). EC50 or 50% lysis values were defined as the drug concentration required for half-maximal inhibition of the cellular growth rate or half-maximal lysis and were calculated by nonlinear regression analysis.
In general terms: Alamar Blue is a resazurin reagent that responds to reducing activity.

The subject of another assay is T. brucei BSF. The experiment in a line: In vitro growth inhibition of T. brucei bloodstream forms. The class given is cell-based, Trypanosoma brucei brucei. On the procedure:
Trypanosoma brucei brucei single-marker bloodstream forms (BSF) (antigenic type 1.2, MITat 1.2, clone 221a) strain 427, harbouring T7 RNA polymerase and the tetracycline repressor (Wirtz et al., 1999) and Trypanosoma brucei rhodesiense EATRO3 ETat1.2 TREU164 (Turner et al., 2004) were used in this study. Bloodstream forms were cultured at 37° C. and 5% CO2 in HMI-9 supplemented with 10% (v/v) or 20% fetal bovine serum, respectively. The non-peptidic CBAs pradimicin A (PRM-A, derived from Actinomadura hibisca) (Oki et al., 1988) and pradimicin S (PRM-S, derived from Actinomadura spinosa strain A A08 51) (Saitoh et al., 1993) were tested for inhibition of parasite growth.

The subject of assay [1] is L. donovani promastigotes. The experiment in a line: In vitro activity against L. donovani promastigotes (proliferation, cell counting). In kind it is cell-based, Leishmania donovani MHOM/ET/67HU3. The following applies: 48 h. On the procedure:
(§3) Activity of pradimicin A (PRM-A) and S (PRM-S) was tested against promastigote and amastigote forms of L. donovani MHOM/ET/67HU3.
In the case of the promastigote forms, 2.5×10^4 parasites were incubated in 24-well plates (1 mL) for 48 h at different drug concentrations between 0.391 μg·mL^−1 and 50 μg·mL^−1 in RPMI 1640 modified supplemented with 20% FBS, 2 mM L-glutamine, 100 U·mL^−1 penicillin and 100 μg·mL^−1 of streptomycin. The proliferation was determined by counting the number of cells using a Z1 Coulter counter. EC50 values were calculated by nonlinear regression analysis.

Another assay deals with L. donovani amastigotes. The experiment in a line: In vitro activity against intracellular L. donovani amastigotes in mouse peritoneal macrophages. The class given is cell-based, Leishmania donovani MHOM/ET/67HU3. The following applies: 72 h. The method, then:
as §3
To determine activity against the amastigote form, 1×10^5 mouse peritoneal macrophages were seeded in 24-well tissue culture chamber slides using RPMI 1640 medium supplemented with 10% HIFBS, 2 mM L-glutamine, 100 U·mL-1 penicillin and 100 μg·mL^−1 streptomycin. Compounds were added and cells were then infected with late-stage promastigotes at a macrophage/parasite ratio of 1:10. After 8 h of infection at 35° C. and 5% CO2, extracellular parasites were removed by washing with serum-free medium, and infected macrophage cultures were incubated with different CBA concentrations for 72 h in RPMI 1640 medium plus 10% HIFBS at 37° C. with 5% CO2. After that, macrophages were fixed with 2.5% p-formaldehyde in PBS for 30 min at 4° C., permeabilized with 0.1% Triton X-100 in PBS for 30 min, and incubated with Gold antifade reagent plus DAPI in order to detect the intracellular parasites. Drug activity was determined from the percentage of infected cells and from the number of amastigotes per cell in drug-treated versus non-treated cultures.

A further assay concerns T. cruzi epimastigotes. The experiment in a line: In vitro activity against T. cruzi epimastigotes (resazurin viability). In kind it is cell-based, Trypanosoma cruzi Tulahuen strain C4. The following applies: 3 days. On the procedure: as §1, §2
The next assay concerns Macrophages. The experiment in a line: Toxicity in macrophages. In kind it is cell-based, mouse.
A further assay concerns T. b. rhodesiense EATRO3. The experiment in a line: In vivo activity of PRM-S in BALB/c mice infected with T. b. rhodesiense EATRO3. The settings on record: for MRD (mean relapse day) / MSD (mean survival day) / cured/infected: BALB/c; for cured/infected: from day 3 post-infection. The text has this:
(§4) In order to establish the trypanocidal capacity of PRM-S, C57BL/6J or BALB/c mice were infected with T. b. brucei 427 or T. b. rhodesiense EATRO3 strains, respectively, and infection was allowed to proceed for 3 days before treatment with PRM-S, one dosage per day for 4 days.
(§5) Female C57BL/6 or BALB/c mice (Jackson Laboratories, Bar Harbor, Me.) were split in groups containing between three and six mice (6-8 weeks old), and infected via intraperitoneal route with 5×10^3 (T. b. brucei strain 427) or 1×10^4 (T. b. rhodesiense EATRO3) trypanosomes, respectively. Different dosages of PRM-S ([…] and 50 mg·kg^−1) were administered once/day intraperitoneally (200 μL) for 4 days starting on the third day post-infection, in 0.5% w/v hydroxypropylmethylcellulose (HPMC), 0.4% v/v Tween 80 and 0.5% v/v benzyl alcohol used as dosage formulation. One group of mice in each case was also infected and treated with the vehicle as control, Parasitaemia was monitored daily in a haematocytometer under a microscope from the third day post-infection and after tail blood extraction.

The test system of a further assay is T. b. brucei 427. The experiment in a line: In vivo activity of PRM-S in C57BL/6J mice infected with T. b. brucei 427. The settings on record: for MRD (mean relapse day) / MSD (mean survival day) / cured/infected: C57BL/6J; for cured/infected: from day 3 post-infection.
Text: as §4, §5

Setting [2] is: read-out: EC50 (% Lysis) T. cruzi.
Setting [3] is: 4 × 25 mg·kg^−1 i.p., listed as PRMS.
The mark [4] stands for this setting: 4 × 50 mg·kg^−1 i.p., listed as PRMS.

Turning to `O=C(Cn1ccnc1[N+](=O)[O-])NCc1ccccc1` [Benznidazole, reference compound], the EC50 is 5.2 ± 0.2 µM with T. cruzi trypomastigotes (Trypanosoma cruzi, read-out: EC50 (% Lysis) T. cruzi) and 1.35 ± 0.05 mg/L with T. cruzi trypomastigotes (Trypanosoma cruzi, read-out: EC50 (% Lysis) T. cruzi (μg · mL^−1)).

`CN[C@@H]1[C@H](O[C@@H]2OC[C@@H](O)[C@H](O)[C@H]2O)[C@@H](O)[C@H](O[C@H]2c3cc(C)c(C(=O)N[C@H](C)C(=O)O)c(O)c3-c3c(cc4c(c3O)C(=O)c3cc(OC)cc(O)c3C4=O)[C@@H]2O)O[C@@H]1C` [PRM-A, pradimicin A]: the EC50 was 3.8 ± 0.05 µM in the assay on T. brucei BSF; 21.4 ± 0.8 µM in assay [1]; 0.8 ± 0.1 µM in the assay with L. donovani amastigotes; 28.1 ± 1.3 µM in the assay with T. cruzi epimastigotes; 1.2 ± 0.3 µM with T. cruzi trypomastigotes (setting [2]); above 100 µM in the assay with Macrophages. Besides, the “EC50 (μg · mL^−1)” value is 3.20 ± 0.04 mg/L (≈ 3.81 µM) with T. brucei BSF; 18.0 ± 0.7 mg/L (≈ 21.4 µM) in assay [1]; 0.7 ± 0.1 mg/L (≈ 0.833 µM) in the assay on L. donovani amastigotes; 23.6 ± 1.1 mg/L (≈ 28.1 µM) in the assay on T. cruzi epimastigotes; above 100 mg/L in the assay on Macrophages. Also, in the assay on T. cruzi trypomastigotes, the “EC50 (% Lysis) T. cruzi” value came to 1.0 ± 0.3 mg/L (≈ 1.19 µM).

Consider `CN[C@@H]1[C@H](O[C@@H]2O[C@H](CO)[C@@H](O)[C@H](OS(=O)(=O)O)[C@H]2O)[C@@H](O)[C@H](O[C@@H]2c3cc(C)c(C(=O)N[C@H](CO)C(=O)O)c(O)c3-c3c(cc4c(c3O)C(=O)c3cc(OC)cc(O)c3C4=O)[C@H]2O)O[C@@H]1C` [PRM-FS, Pradimicin-FS], for which, in the assay on T. brucei BSF, the response was half-maximal at 13.5 ± 0.8 µM (EC50) and the “EC50 (μg · mL^−1)” value was 13.0 ± 0.7 mg/L (≈ 13.4 µM). Also, in assay [1], a half-maximal effect (EC50) was put at 50.8 ± 2.1 µM and the “EC50 (μg · mL^−1)” value worked out at 49.1 ± 2.0 mg/L (≈ 50.8 µM).

With `CN[C@@H]1[C@H](O[C@@H]2O[C@H](CO)[C@@H](O)[C@H](OS(=O)(=O)O)[C@H]2O)[C@@H](O)[C@H](O[C@H]2c3cc(C)c(C(=O)N[C@H](C)C(=O)O)c(O)c3-c3c(cc4c(c3O)C(=O)c3cc(OC)cc(O)c3C4=O)[C@@H]2O)O[C@@H]1C` [PRM-S, pradimicin S], the half-maximal effective concentration (EC50) in the assay on T. brucei BSF is 6.44 ± 0.08 µM; in assay [1], 22.9 ± 1.9 µM; in the assay with L. donovani amastigotes it was 2.3 ± 0.3 µM; in the assay on T. cruzi epimastigotes, 19 ± 2.6 µM; in the assay with T. cruzi trypomastigotes (setting [2]), 1.4 ± 0.3 µM; in the assay with Macrophages, above 100 µM. Further, the “EC50 (μg · mL^−1)” value in the assay with T. brucei BSF was 5.85 ± 0.08 mg/L (≈ 6.15 µM); in assay [1], 21.8 ± 1.9 mg/L (≈ 22.9 µM); in the assay with L. donovani amastigotes, 2.2 ± 0.2 mg/L (≈ 2.31 µM); in the assay with T. cruzi epimastigotes, 17.3 ± 2.4 mg/L (≈ 18.2 µM); in the assay with Macrophages, above 100 mg/L. Besides, the “mice in which parasitaemia appeared subsequently (relapse)” value in the assay with T. b. rhodesiense EATRO3 (25 mg·kg^−1) is “three of the five mice”. Also, the “MRD (mean relapse day)” value in the assay on T. b. rhodesiense EATRO3 (4 × 25 mg·kg^−1 i.p.), in the assay on T. b. rhodesiense EATRO3 (setting [3]), in the assay with T. b. brucei 427 (4 × 25 mg·kg^−1 i.p.) and in the assay with T. b. brucei 427 (setting [3]) was 10.7 ± 0.6 days throughout. In addition, the “MSD (mean survival day)” value with T. b. rhodesiense EATRO3 (4 × 25 mg·kg^−1 i.p.) was 44.4 ± 41.7 days; in the assay on T. b. rhodesiense EATRO3 (setting [3]), 44.4 ± 41.7 days; with T. b. rhodesiense EATRO3 (4 × 50 mg·kg^−1 i.p.) it was above 90 days; in the assay with T. b. rhodesiense EATRO3 (setting [4]), above 90 days; with T. b. brucei 427 (4 × 25 mg·kg^−1 i.p.) it was 18.0 ± 7 days; in the assay on T. b. brucei 427 (setting [3]) it was 18.0 ± 7 days. Also, the “MSD (mean survival day)” value with T. b. brucei 427 (4 × 50 mg·kg^−1 i.p.) and in the assay on T. b. brucei 427 (setting [4]) was above 90 days in each case. Also, the cured/infected was 2/5 in the assay with T. b. rhodesiense EATRO3 (4 × 25 mg·kg^−1 i.p.), 5/5 in the assay with T. b. rhodesiense EATRO3 (4 × 50 mg·kg^−1 i.p.), 0/3 in the assay on T. b. brucei 427 (4 × 25 mg·kg^−1 i.p.) and 6/6 in the assay on T. b. brucei 427 (4 × 50 mg·kg^−1 i.p.). Also, the parasitaemia result in the assay with T. b. rhodesiense EATRO3 (both dosages (25 and 50 mg·kg^−1), after the first administration) was “drastically reduced”; with T. b. brucei 427 (after the first dose of 50 mg·kg^−1) it was “dramatic decrease of parasitaemia”; in the assay with T. b. brucei 427 (after the third dose of 25 mg·kg^−1), “dramatic decrease of parasitaemia”. Also, the “EC50 (% Lysis) T. cruzi” value in the assay on T. cruzi trypomastigotes amounted to 1.2 ± 0.3 mg/L (≈ 1.26 µM).
